Laboratory results as given in BindingDB's records for doi:10.1021/jm00142a005 (1982).
Where a name gives a salt, the structure may show the parent alone.

Each molecule was assayed against Thromboxane-A synthase (Oryctolagus cuniculus) (assay: Inhibitory activity against rabbit thromboxane synthetase).

In order of rising IC50:
1. O=C(O)/C=C\CCCCCn1ccnc1 [8-Imidazol-1-yl-oct-2-enoic acid]  16 nM
2. CC(CCCCCCn1ccnc1)C(=O)O (stereo not drawn) [8-Imidazol-1-yl-2-methyl-octanoic acid; hydrochloride]  30 nM
3. O=C(O)C(CCCCCCn1ccnc1)c1ccccc1 (stereo not drawn) [8-Imidazol-1-yl-2-phenyl-octanoic acid; hydrochloride]  38 nM
4. O=C(O)C1(CCCCCCn2ccnc2)CCCCC1 [1-(6-Imidazol-1-yl-hexyl)-cyclohexanecarboxylic acid; hydrochloride]  46 nM
5. O=C(O)CCCC/C=C\Cn1ccnc1 [8-Imidazol-1-yl-oct-6-enoic acid; hydrochloride]  56 nM
6. O=C(O)/C=C/CCCCCn1ccnc1 [8-Imidazol-1-yl-oct-2-enoic acid; hydrochloride]  70 nM
7. CC(C)(CCCCn1ccnc1)CCC(=O)O [8-Imidazol-1-yl-4,4-dimethyl-octanoic acid; hydrochloride]  71 nM
8. CC(C)(CCCCCCC(=O)O)n1ccnc1 [8-Imidazol-1-yl-8-methyl-nonanoic acid; hydrochloride]  90 nM
